In brackets after ≈: the same amount, converted by molar mass.
How the values were obtained:
[1] = system: Escherichia coli strain ATCC25922; assay: Antimicrobial activity, MIC by broth microdilution; assay type: cell-based; details: ATCC25922, 18 h, cation-adjusted Mueller-Hinton broth, about 5×10^5 CFU/mL, 35° C., about 18 hours, read-out: MIC Escherichia coli ATCC25922
Source text: (§1) Test Example 4 Evaluation of the Antimicrobial Activity
(§2) For minimum inhibitory concentration (MIC) measurement, the following broth microdilution method was applied as adapted from the standard procedure recommended by the CLSI (Clinical and Laboratory Standards Institute).
(§3) The bacteria used were Pseudomonas aeruginosa strain ATCC27853, Escherichia coli strain ATCC25922, and Klebsiella pneumoniae strain ATCC13883. After culture overnight on a heart infusion agar medium, the cells of a test bacterium were scraped off, and a bacterial solution suspended to have a turbidity of level 0.5 on the McFarland scale was diluted and used as an inoculum solution. The inoculum solution was inoculated in a cation-adjusted Mueller-Hinton broth medium containing a test compound so that the final inoculation concentration was about 5×10^5 CFU/mL, and cultured at 35° C. for about 18 hours. A minimum drug concentration at which no cell growth was visible to the naked eye was designated as MIC. […] In the table, ND represents the case where suppression of the cell growth in a drug concentration-dependent manner was not observed (Not Determined), and NT represents that no test was conducted (Not Tested).

[2] = system: Klebsiella pneumoniae strain ATCC13883; assay: Antimicrobial activity, MIC by broth microdilution; assay type: cell-based; details: ATCC13883, cation-adjusted Mueller-Hinton broth, about 5×10^5 CFU/mL, 35° C., about 18 hours, read-out: MIC Klebsiella pneumoniae ATCC13883
Source text: as §1, §2, §3

[3] = system: Pseudomonas aeruginosa strain ATCC27853; assay: Antimicrobial activity, MIC by broth microdilution; assay type: cell-based; details: ATCC27853, 18 h, cation-adjusted Mueller-Hinton broth, about 5×10^5 CFU/mL, 35° C., about 18 hours, read-out: MIC Pseudomonas aeruginosa ATCC27853
Source text: as §1, §2, §3

[4] = target: T1, Escherichia coli LpxC enzyme (Escherichia coli, UniProt P0A725); assay: Inhibitory activity on Escherichia coli LpxC enzyme (fluorescamine method); assay type: biochemical; details: fluorescamine detection; 3.1 nmol/L enzyme, 20 μmol/L substrate, pH 6.5, 120 min; read-out: IC50 (inhibitory activity on Escherichia coli LpxC enzyme, Fluoresamine method)
T1 construct: made in house; host or cells: Escherichia coli
T1 sequence (P0A725 1-305): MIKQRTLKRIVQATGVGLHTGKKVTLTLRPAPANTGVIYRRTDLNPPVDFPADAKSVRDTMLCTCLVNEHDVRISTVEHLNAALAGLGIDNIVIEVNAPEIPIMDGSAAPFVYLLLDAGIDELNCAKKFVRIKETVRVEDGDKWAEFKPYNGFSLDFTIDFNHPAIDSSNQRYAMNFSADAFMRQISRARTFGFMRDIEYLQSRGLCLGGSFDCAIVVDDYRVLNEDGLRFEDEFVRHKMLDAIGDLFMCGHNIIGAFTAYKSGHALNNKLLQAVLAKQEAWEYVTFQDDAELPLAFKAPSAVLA
Procedure: To assay the activity of Escherichia coli LpxC enzyme, LpxC was reacted with its substrate, UDP-3-O-(R-3-hydroxymyristoyl)-N-acetylglucosamine, and the amount of the reaction product was quantified by the amino groups present in the product
The reaction was terminated by the addition of 1.0 mg/mL-fluorescamine dissolved in a solvent obtained by mixing an equal amount of acetonitrile and dimethylformamide with the reaction mixture, and then, a 0.2 mol/L-sodium phosphate buffer solution (pH 8.0) was added thereto, and the amount of the reaction product was detected at an excitation wavelength/fluorescence wavelength=390 nm/495 nm. An inhibition curve was obtained by performing the aforementioned reaction in the presence of various concentrations of test compounds.

SMILES | MIC [1] | MIC [2] | MIC [3] | IC50 [4]
COCC1CC1C#Cc1ccc(-c2cc([C@@H](CN)n3ccnc3[C@H](C)O)no2)cc1 (relative stereo) [Compound 74, (1S)-1-(1-{(1R)-2-amino-1-[5-(4-{[trans-2-(methoxymethyl)cyclopropyl]ethynyl}phenyl)-1,2-oxazol-3-yl]ethyl}-1H-imidazol-2-yl)ethan-1-ol] | 0.12 mg/L (≈ 0.295 µM) | 0.25 mg/L (≈ 0.615 µM) | 16 mg/L (≈ 39.4 µM) | 0.0396 µM
C[C@H](O)c1nccn1[C@H](CN)c1cc(-c2ccc(C#CC3CC3CO)cc2)on1 (relative stereo) [Compound 80, (1S)-1-(1-((1R)-2-amino-1-[5-(4-{[trans-2-(hydroxymethyl)cyclopropyl]ethynyl}phenyl)-1,2-oxazol-3-yl]ethyl}-1H-imidazol-2-yl)ethan-1-ol] | 0.25 mg/L (≈ 0.637 µM) | 1 mg/L (≈ 2.55 µM) | 4 mg/L (≈ 10.2 µM) | 0.0807 µM
C[C@H](O)c1nccn1Cc1cc(-c2ccc(C#C[C@@H]3[C@H]4CN(CC(=O)O)C[C@@H]34)cc2)on1 [Compound 110, [(1R,5S,6s)-6-({4-[3-((2-[(1S)-1-hydroxyethyl]-1H-imidazol-1-yl}methyl)-1,2-oxazol-5-yl]phenyl}ethynyl)-3-azabicyclo[3.1.0]hexan-3-yl]acetic acid] | – | – | – | 0.219 µM
C[C@H](O)c1nccn1Cc1cc(-c2ccc(C#C[C@@H]3[C@H]4CN(CCC(=O)O)C[C@@H]34)cc2)on1 [Compound 114, 3-[(1R,5S,6s)-6-({4-[3-({2-[(1S)-1-hydroxyethyl]-1H-imidazol-1-yl}methyl)-1,2-oxazol-5-yl]phenyl}ethynyl)-3-azabicyclo[3.1.0]hexan-3-yl]propanoic acid] | – | 4 mg/L (≈ 8.96 µM) | 4 mg/L (≈ 8.96 µM) | 0.291 µM
CC(=O)N[C@H]1C[C@H](C#Cc2ccc(-c3cc([C@@H](CN)n4ccnc4[C@H](C)O)no3)cc2)C1 [Compound 115, N-{trans-3-[(4-{3-[(1R)-2-amino-1-{2-[(1S)-1-hydroxyethyl]-1H-imidazol-1-yl}ethyl]-1,2-oxazol-5-yl}phenyl)ethynyl]cyclobutyl} acetamide] | 4 mg/L (≈ 9.23 µM) | 8 mg/L (≈ 18.5 µM) | 16 mg/L (≈ 36.9 µM) | –
C[C@H](O)c1nccn1[C@H](CN)c1cc(-c2ccc(C#C[C@@H]3[C@H]4CN(C=O)C[C@@H]34)cc2)on1 [Compound 117, (1R,5S,6s)-6-[(4-{3-[(1R)-2-amino-1-{2-[(1S)-1-hydroxyethyl]-1H-imidazol-1-yl}ethyl]-1,2-oxazol-5-yl}phenyl)ethynyl]-3-azabicyclo[3.1.0]hexane-3-carbaldehyde] | 1 mg/L (≈ 2.32 µM) | 2 mg/L (≈ 4.64 µM) | 8 mg/L (≈ 18.5 µM) | –
COC(=O)N1C[C@@H]2[C@@H](C#Cc3ccc(-c4cc([C@@H](CN)n5ccnc5[C@H](C)O)no4)cc3)[C@@H]2C1 [Compound 118, methyl (1R,5S,6s)-6-[(4-{3-[(1R)-2-amino-1-{2-[(1S)-1-hydroxyethyl]-1H-imidazol-1-yl}ethyl]-1,2-oxazol-5-yl}phenyl)ethynyl]-3-azabicyclo[3.1.0]hexane-3-carboxylate] | 0.25 mg/L (≈ 0.542 µM) | 0.5 mg/L (≈ 1.08 µM) | 4 mg/L (≈ 8.67 µM) | –
CC(O)CN1C[C@@H]2[C@@H](C#Cc3ccc(-c4cc([C@@H](CN)n5ccnc5[C@H](C)O)no4)cc3)[C@@H]2C1 (stereo partly drawn) [Compound 120, 1-{(1R,5S,6s)-6-[(4-{3-[(1R)-2-amino-1-{2-[(1S)-1-hydroxyethyl]-1H-imidazol-1-yl}ethyl]-1,2-oxazol-5-yl}phenyl)ethynyl]-3-azabicyclo[3.1.0]hexan-3-yl}propan-2-ol] | 1 mg/L (≈ 2.17 µM) | 2 mg/L (≈ 4.33 µM) | 2 mg/L (≈ 4.33 µM) | –
C[C@H](O)c1nccn1[C@H](CN)c1cc(-c2ccc(C#C[C@H]3C[C@H](N(C)C=O)C3)cc2)on1 [Compound 123, N-{trans-3-[(4-{3-[(1R)-2-amino-1-{2-[(1S)-1-hydroxyethyl]-1H-imidazol-1-yl}ethyl]-1,2-oxazol-5-yl}phenyl)ethynyl]cyclobutyl}-N-methylformamide] | 4 mg/L (≈ 9.23 µM) | 2 mg/L (≈ 4.61 µM) | 32 mg/L (≈ 73.8 µM) | –
C[C@H](O)c1nccn1[C@H](CN)c1cc(-c2ccc(C#C[C@@H]3[C@H]4CN(C(=O)C(N)=O)C[C@@H]34)cc2)on1 [Compound 124, 2-{(1R,5S,6s)-6-[(4-{3-[(1R)-2-amino-1-{2-[(1S)-1-hydroxyethyl]-1H-imidazol-1-yl}ethyl]-1,2-oxazol-5-yl}phenyl)ethynyl]-3-azabicyclo[3.1.0]hexan-3-yl}-2-oxoacetamide] | 2 mg/L (≈ 4.21 µM) | 4 mg/L (≈ 8.43 µM) | 2 mg/L (≈ 4.21 µM) | –
C[C@H](O)c1nccn1[C@H](CN)c1cc(-c2ccc(C#C[C@H]3C[C@@H](O)C3)cc2)on1 [Compound 125, cis-3-[(4-{3-[(1R)-2-amino-1-{2-[(1S)-1-hydroxyethyl]-1H-imidazol-1-yl}ethyl]-1,2-oxazol-5-yl}phenyl)ethynyl]cyclobutan-1-ol] | 2 mg/L (≈ 5.1 µM) | 2 mg/L (≈ 5.1 µM) | 8 mg/L (≈ 20.4 µM) | –
C[C@H](O)c1nccn1[C@H](CN)c1cc(-c2ccc(C#C[C@H]3CC3C(=O)O)cc2)on1 (stereo partly drawn) [Compound 126, trans-2-[(4-{3-[(1R)-2-amino-1-{2-[(1S)-1-hydroxyethyl]-1H-imidazol-1-yl}ethyl]-1,2-oxazol-5-yl}phenyl)ethynyl]cyclopropane-1-carboxylate] | 16 mg/L (≈ 39.4 µM) | 64 mg/L (≈ 157 µM) | 16 mg/L (≈ 39.4 µM) | –
C[C@H](O)c1nccn1[C@H](CN)c1cc(-c2ccc(C#CC3CC(NC4CC4)C3)cc2)on1 (stereo partly drawn) [Compound 129, (1S)-1-(1-{(1R)-2-amino-1-[5-(4-{[3-(cyclopropylamino)cyclobutyl]ethynyl}phenyl)-1,2-oxazol-3-yl]ethyl}-1H-imidazol-2-yl)ethan-1-ol] | 1 mg/L (≈ 2.32 µM) | 2 mg/L (≈ 4.63 µM) | 8 mg/L (≈ 18.5 µM) | –
C[C@H](O)c1nccn1[C@H](CN)c1cc(-c2ccc(C#CC3CC3(CO)CO)cc2)on1 (stereo partly drawn) [Compound 131, (1S)-1-(1-{(1R)-2-amino-1-[5-(4-{[2,2-bis(hydroxymethyl)cyclopropyl]ethynyl}phenyl)-1,2-oxazol-3-yl]ethyl}-1H-imidazol-2-yl)ethan-1-ol] | 8 mg/L (≈ 18.9 µM) | 32 mg/L (≈ 75.7 µM) | 16 mg/L (≈ 37.9 µM) | –
C[C@H](O)c1nccn1[C@H](CN)c1cc(-c2ccc(C#C[C@@H]3[C@H]4CN(CCCO)C[C@@H]34)cc2)on1 [Compound 132, 3-{(1R,5S,6s)-6-[(4-{3-[(1R)-2-amino-1-{2-[(1S)-1-hydroxyethyl]-1H-imidazol-1-yl}ethyl]-1,2-oxazol-5-yl}phenyl)ethynyl]-3-azabicyclo[3.1.0]hexan-3-yl) propan-1-ol] | 8 mg/L (≈ 17.3 µM) | 8 mg/L (≈ 17.3 µM) | 2 mg/L (≈ 4.33 µM) | –
C[C@H](O)c1nccn1[C@H](CN)c1cc(-c2ccc(C#C[C@H]3C[C@H](NC4COC4)C3)cc2)on1 [Compound 133, (1S)-1-{1-[(1R)-2-amino-1-{5-[4-({trans-3-[(oxetan-3-yl)amino]cyclobutyl}ethynyl)phenyl]-1,2-oxazol-3-yl}ethyl]-1H-imidazol-2-yl} ethan-1-ol] | 1 mg/L (≈ 2.23 µM) | 4 mg/L (≈ 8.94 µM) | 8 mg/L (≈ 17.9 µM) | –
C[C@H](O)c1nccn1Cc1cc(-c2ccc(C#C[C@H]3C[C@H](NC4COC4)C3)cc2)on1 [Compound 135, (S)-1-(1-((5-(4-(((1r,3S)-3-(oxetan-3-ylamino)cyclobutyl)ethynyl)phenyl)isoxazol-3-yl)methyl)-1H-imidazol-2-yl)ethanol] | 0.5 mg/L (≈ 1.19 µM) | 2 mg/L (≈ 4.78 µM) | 32 mg/L (≈ 76.5 µM) | –
C[C@H](O)CN1C[C@@H]2[C@@H](C#Cc3ccc(-c4cc([C@@H](CN)n5ccnc5[C@H](C)O)no4)cc3)[C@@H]2C1 [Compound 136, (S)-1-((1R,5S,6R)-6-((4-(3-((R)-2-amino-1-(2-((S)-1-hydroxyethyl)-1H-imidazol-1-yl)ethyl)isoxazol-5-yl)phenyl)ethynyl)-3-azabicyclo[3.1.0]hexan-3-yl)propan-2-ol] | 1 mg/L (≈ 2.17 µM) | 4 mg/L (≈ 8.67 µM) | 2 mg/L (≈ 4.33 µM) | –

Reference: patent US20220002279A1, “NOVEL IMIDAZOLE DERIVATIVE” (priority 2018, published 2022)
